Data taken from ChEMBL document CHEMBL3507680, “University of Dundee, Gates Library screen for HepG2 cell viability”.

Assay: Human HepG2 cell viability assay in 384 well format
Format: toxicity, cell-based
Set-up: dose 125 nL, time 70.5 hour; cytotoxicity at 70.5 h: concentration not given beside the values
Conditions: HepG2 cells, read-out: Inhibition

Structure (SMILES)	cytotoxicity at 70.5 h [%]
CCC(C)(C)n1nnnc1C(c1cccs1)N1CCc2ccccc21 (configuration not stated)	-1.64
CC(CN(C)C)Nc1nc(O)cc(Cc2ccccc2F)n1 (configuration not stated)	4.28
CC(C)CC(=O)N1CCC(Nc2nc(O)cc(-c3ccsc3)n2)CC1	11.2
CC1(C(=O)NCCCOc2ccccc2F)CC(=O)N2C=CC=CC2=N1 (configuration not stated)	0.00385
Cc1cc(C)nc(N2CCC(c3cccc(CCC(=O)O)n3)CC2)n1	-9.41
O=C(Cc1ccccc1)NCc1ccc(-c2ccccc2C(=O)O)cn1	1.3
OCCN1CCC(c2csc(Nc3cnccn3)n2)CC1	14.5
CC(=O)N1CCCC(c2nccnc2Nc2nc(C)cc(C)n2)C1 (configuration not stated)	13.3
CC(=O)NCc1ccc(-c2ccccc2C(=O)O)cn1	-1.2
c1cnnc(N[C@@H]2CC[C@@H]3CN(Cc4c[nH]c5ccccc45)C[C@@H]32)c1	4.96
O=C(c1ccc2c(c1)CCC2)N1CCn2ncnc2C1	3.48
COCC(=O)NCCn1nc(-c2cc(C)oc2C)ccc1=O	-2.12
CNC(=O)CCc1cc(C2CCCCN2C(C)C)nc(C)n1 (configuration not stated)	-1.6
CNC(=O)CCc1cc(C2CCCCN2C)nc(C)n1 (configuration not stated)	-7.9
COCCC(=O)N1Cc2nc3c(C)c(-c4cccs4)nn3c(O)c2C1	-14.7
Cc1ccc(C(=O)N2CCC(c3noc(-c4cccnc4)n3)CC2)cn1	-3.32
Cc1c(-c2cccs2)nn2c(O)c3c(nc12)CN(C(=O)C1CC1)C3	-4.82
Cc1cc2c(cc1Cl)C=CC1(CCN(C(=O)N3CCOCC3)CC1)O2	22
Cc1cc2c(cc1Cl)C=CC1(CCN(CC(=O)N3CCCC3)CC1)O2	2.51
Cc1cc2c(cc1Cl)C=CC1(CCN(CC(=O)NC3CCCC3)CC1)O2	-1.12
Cc1ccc(-c2cc(N)c(=O)n(C(C)C(N)=O)n2)o1 (configuration not stated)	-5.11
O=C1CCC(c2nc(C3CCN(C(=O)Cc4cccs4)CC3)no2)N1 (configuration not stated)	-6.58
O[C@@H]1C[C@H]2CN(Cc3ccsc3)[C@@H](Cc3ccccc3)CN2C1	-1.32

Structure (SMILES)	cytotoxicity at 70.5 h [%]
Cc1cc(N(C)C)nc(C2COCCN2Cc2nccn2C)n1 (configuration not stated)	-6.31
CN(C)c1ncc(-c2ccc(C(N)=O)cc2)c(C2CNCCO2)n1 (configuration not stated)	-4.35
Nc1ncc(-c2ccc(F)cc2)c(C2CCCNC2)n1 (configuration not stated)	24.3
Cc1nn(C)c(C)c1-c1nccnc1CC1CCNCC1	-1.07
Cc1cn[nH]c1C1COCCN1C(=O)c1ccc2[nH]nnc2c1 (configuration not stated)	-4.19
CNc1cc(C)nc(C2COCCN2Cc2csc(C)n2)n1 (configuration not stated)	-9.53
COc1cccc(CC(=O)N2CCC(c3ccn4nccc4n3)CC2)c1	-3.73
c1cc(NC2CC3(CCN(Cc4cscn4)C3)C2)ncn1 (configuration not stated)	-7.63
O=C(NC[C@]1(O)CCN(Cc2ccsc2)C[C@H]1O)c1c[nH]cn1	-9.1
O[C@@H]1C[C@H]2CN(Cc3ccccc3Cl)[C@H](Cc3ccccc3)CN2C1	25.5
CN[C@@H]1CCC[C@@H](Oc2ccccc2Oc2ccc(C)cc2)[C@@H]1O	22.2
CC(=O)N1CCCC(c2ccc(CO)c(-c3c(C)noc3C)n2)C1 (configuration not stated)	27.2
CNC(=O)CCc1cc(C2CCCN2C(=O)CO)nc(C)n1 (configuration not stated)	-5.79
O=C(c1cc2cccc(F)c2[nH]1)N1C[C@@H](O)[C@H](N2CCCC2)C1	-4.92
Cc1cc(N2CCC(O)(CN(C)C(=O)CCN)CC2)c2cnccc2n1	-5.17
CCC1CNCc2cc3c(C)ccc(C)c3nc2O1 (configuration not stated)	-1.78
Cc1ncsc1-c1cc(C(=O)NCCO)ccn1	21.2
Cc1ccnc(C2CCN(C(=O)c3cnn(C)c3)CC2)n1	23.3
COCCN1CCC(Cc2cnc(-c3ccccc3C(=O)O)cn2)CC1	8.51
COCCN1C(=O)CO[C@H]2CN(Cc3ccccc3Cl)C[C@@H]21	-9.25
Cc1ncc(CNC(=O)CCc2cccs2)c(C2CCCN2C)n1 (configuration not stated)	-4.28
COc1cccc(CN2CC[C@H](NC(C)=O)[C@@H](O)CC2)c1F	-1.47
CC(=O)N1CCN([C@@H]2CC[C@@H](NC(=O)c3ccc(C)nc3)[C@H]2O)CC1	-5.95

Structure (SMILES)	cytotoxicity at 70.5 h [%]
CN1CCC(c2cccc(Cc3ccc(C(F)(F)F)cc3)n2)CC1	-0.939
Cc1noc(C)c1-c1cccc(CC2CCN(C(=O)c3cscn3)C2)n1 (configuration not stated)	-5.81
CC(=O)Nc1nc(C2CCN(C(=O)C3CCC3)CC2)cs1	-5.93
CS(=O)(=O)N1CCCC(c2cncc(Nc3ccccn3)n2)C1 (configuration not stated)	-7.64
NC(=O)C1(c2cnccn2)CCCN1Cc1ccc(Cl)cc1 (configuration not stated)	-9.51
c1cnc(Nc2cncc(C3CCCN(c4ncccn4)C3)n2)nc1 (configuration not stated)	-7.66
CS(=O)(=O)N1CCCC(Cc2cncc(-c3ccccc3C(=O)O)n2)C1 (configuration not stated)	-12.4
CN(Cc1ccc(F)cc1)CC1(O)CCN(C(=O)c2ccccn2)C1 (configuration not stated)	-12.9
CN(Cc1ccc(F)cc1)CC1(O)CCN(C(=O)c2cccs2)C1 (configuration not stated)	2.73
O=C(c1ccncc1)N1CCCC1c1nc(O)cc(-c2ccccn2)n1 (configuration not stated)	-2.92
COc1ncc(CN2CCOC(C)(C(=O)N3CCOCC3)C2)cn1 (configuration not stated)	-4.39
CN(C)C(=O)CN1CCCC1c1cccc(Cc2ccccc2F)n1 (configuration not stated)	0.856
NC(=O)C1(c2cnccn2)CCCN1Cc1ccccn1 (configuration not stated)	-3.76
NC(=O)C1(c2cnccn2)CCCN1Cc1cccc(Cl)c1 (configuration not stated)	-2.75
NCC(=O)N1CCC(c2cncc(Oc3cccnc3)n2)CC1	1.14
Cc1ccc(CN2CCCC2(C(N)=O)c2cnccn2)c(C)c1 (configuration not stated)	-0.964
c1cnc(Nc2cncc(C3CCCN(c4cnccn4)C3)n2)nc1 (configuration not stated)	-5.35
CN(C)Cc1ccnc(C2CN(CCc3ccccc3)CCO2)n1 (configuration not stated)	17.9
CNC(=O)C1(c2cnccn2)CCCN1C(=O)c1c(F)cccc1F (configuration not stated)	18.1
Cc1ccccc1-c1cncc(C2CCN(Cc3ccccn3)CC2)n1	-3.39
Cc1ccc(CNc2nc(O)cc(C3CC(=O)N(C)C3)n2)cc1 (configuration not stated)	-4.28
CC(=O)N1CCC(c2nc(C)cc(-c3ccccc3C(=O)O)n2)CC1	-3.01
Cc1ccc(CC(=O)N2CCCC(c3n[nH]c4nccnc34)C2)cc1 (configuration not stated)	-1.21

Structure (SMILES)	cytotoxicity at 70.5 h [%]
Cc1cccc(CC(=O)N2CCCC(c3n[nH]c4nccnc34)C2)c1 (configuration not stated)	14.6
CNC(=O)c1ccc(C2CN(C(=O)c3c[nH]nc3C)CCO2)nc1 (configuration not stated)	-1.61
CNc1cccc(C2CCCN(C(=O)c3coc(C)n3)C2)n1 (configuration not stated)	-0.702
Nc1nc2nc(C3CCCN(C(=O)c4cncs4)C3)ccc2s1 (configuration not stated)	0.556
CC1CCN(S(=O)(=O)N2CCC(Oc3cnccn3)CC2)CC1	-5.91
Cc1ccnc(C2CCN(C(=O)c3cnn(C)c3)C2)n1 (configuration not stated)	12.7
CCCN(C(=O)c1cnccn1)c1nc2c(s1)CCc1c-2cnn1C	7.37
CN(C)Cc1ccnc(C2CCCN2Cc2cc3ccccc3s2)n1 (configuration not stated)	-1.24
O=C(c1cccs1)N1CCc2c(nc(N3CCCCC3)[nH]c2=O)C1	-0.672
O=C(c1cc[nH]n1)N1CCc2c(nc(N3CCCCC3)[nH]c2=O)C1	-4.43
Cc1nc(O)c2nnn(C[C@H]3CCCN3C(=O)c3cccs3)c2n1	-7.34
CN1CCCC(c2cccc(CCC(=O)NCc3ccccn3)n2)C1 (configuration not stated)	-7.64
O=C(c1cscn1)N1CCC(Cc2cnc3[nH]ccc3c2)C1 (configuration not stated)	-1.17
Cc1nc(O)cc(C2CCCN2CCO)n1 (configuration not stated)	-5.13
Cc1cc(C)nc(Nc2cccc(C3CCCN(C(C)C)C3)n2)n1 (configuration not stated)	-6.28
c1ccc(OCCN2CCC(c3nnc(-c4cccnc4)o3)CC2)cc1	-2.58
CCc1c(C)nc2cc(C3CCN(Cc4ccc(F)cc4)C3)nn2c1O (configuration not stated)	-5.42
COC(=O)C1CCCN1C(=O)c1ccc(Cl)cc1F (configuration not stated)	-2.57
NC(=O)C1CCN(S(=O)(=O)c2cnn(-c3ccccc3)c2)CC1	-4.05
COCCn1cc(C(=O)NCCS(N)(=O)=O)c2ccccc21	-7.1
CCCn1cc(C(=O)NCCCC(N)=O)c2ccccc21	-2.51
O=C(NC1(C(=O)O)CCCCC1)C1Cc2ccccc2O1 (configuration not stated)	-3.59
CCn1cc(NC(=O)CN2CCC(Oc3ccc(F)cc3)CC2)c(C)n1	5.01

Structure (SMILES)	cytotoxicity at 70.5 h [%]
CNC(=O)[C@@H]1CN(C(=O)CCOC)C[C@H]1c1ccnc(N2CCCC2)n1	-4.83
CNC(=O)[C@@H]1CN(C(=O)C(C)C)C[C@H]1c1ccnc(N2CCCC2)n1	-3.61
CNC(=O)[C@@H]1CN(C(=O)C2CCC2)C[C@H]1c1ccnc(N2CCCC2)n1	-0.284
O=C(NC1CCCC1)c1ccnc(C2CCNCC2)c1	-1.39
Cc1nccn1CCCn1cncc1-c1ccc2c(c1)CCC(C)N2C (configuration not stated)	-1.7
Cn1cncc1CN1CCc2nc3sccc3c(=O)n2CC1	-19.1
CCOc1ccccc1-c1cc(N)[nH]n1	-5.47
Cc1nccn1CCCn1cncc1-c1ccc2c(c1)CCCN2C	-5.52
CN(C)c1ncc(-c2cncnc2)c(C2CNCCO2)n1 (configuration not stated)	-8.74
COc1ccc(-c2cnc(N)nc2C2CCCNC2)cc1 (configuration not stated)	0.112
CC(C)(C)CC(=O)NCCn1nc(C2CCNC2)c2cccnc21 (configuration not stated)	-6.02
CNCC(=O)N1CCCC1c1cncc(Oc2ccc(F)cc2)n1 (configuration not stated)	-2.91
CNC(=O)c1cccc(C2CNCCN2C(=O)c2cccc(F)c2)c1 (configuration not stated)	25
CC(=O)N1CCN(c2cc(CCN)nc(C3CC3)n2)CC1	-1.97
CC1CCN(c2cc(CCC3CCCN3)ncn2)CC1 (configuration not stated)	-3.6
NCC(=O)N1CCCC(c2ccnc(Nc3cnccn3)n2)C1 (configuration not stated)	-7.18
COc1ccc([C@@H]2CN(Cc3ccncc3)C[C@H]2c2cc[nH]n2)cc1	-7.91
c1ccc([C@@H]2CN(Cc3cccnc3)C[C@H]2c2cc[nH]n2)cc1	-7.07
Cn1ccnc1CN1CCCC(Cc2ccnc3ccncc23)CC1 (configuration not stated)	-5.22
Cc1cc(C)nc(N2CCN(Cc3nccn3C)CC2)n1	-2.76
